Assay results reported in PubChem BioAssay AID624344 (Sanford-Burnham Center for Chemical Genomics, 2012).
Calls of active or inactive are those of the source. How the calls were made is not given here.

Key:
[1] = NFkB reporter suppression in cystic fibrosis bronchial cells – cell-based, uHTS hits, panel, cytotoxicity readout, dose response (AID 624344); details: CF bronchial epithelial cells, PAF-induced NFkB reporter inhibition; with PAF, mean of runs
Cytotoxicity = test: as above; details: CF bronchial epithelial cells, mean of runs

Row | SMILES | IC50 [1] | IC50 (Cytotoxicity)
1 | CCOC(=O)/C=c1/s/c(=C\c2c(OC)ccc3ccccc23)c(=O)n1CC(=O)NCC1CCCO1 (stereo unspecified) | > 79 µM (inactive) | > 79 µM (inactive)
2 | c1ccc(-c2nc3nonc3nc2-c2ccccc2)cc1 | 12.2 µM | 45.4 µM
3 | CCCCCCc1cc2cc(S(=O)(=O)c3ccc(F)cc3)c(=O)oc2cc1O | 4.48 µM | 4.76 µM
4 | Cc1cc(N2CCOCC2)c2c(N)c(Br)cc(C)c2n1 | 0.729 µM | 20 µM
5 | C=CC[C@]12CC=CC(=O)[C@@]1(O)O[C@H](c1ccc(OC)c(OC)c1)[C@H]2C | 4.61 µM | 6.69 µM
6 | CS(=O)(=O)c1ncc(Cl)c(C(=O)Nc2ccc(OC(F)F)cc2)n1 | 1.78 µM | 3.58 µM
7 | COc1ccc(NC(=O)Nc2nnc(-c3ccncc3)s2)cc1 | 5.6 µM | 64.7 µM (inactive)
8 | NC(=O)c1nsc(C(=O)N(c2ccccc2F)C(C(=O)NCc2ccc(F)cc2)c2ccc(O)cc2)c1N (stereo unspecified) | 2.08 µM | 6.55 µM
9 | COc1ccc2[nH]cc(C(=O)CCl)c2c1 | 1.21 µM | 1.94 µM
10 | COc1ccc(N=Cc2cc3c(cc2O)OC(N)=C(C#N)C3c2ccccc2)cc1 (stereo unspecified) | 3.4 µM | 59.8 µM (inactive)
11 | C=C1C(=O)[C@]23C[C@H]1CCC2[C@]1(C)C(=O)CC[C@@](C)(C(=O)O)C1C[C@@H]3O (stereo partly specified) | 0.96 µM | 14.4 µM
12 | COc1ccccc1[C@]1(C)ON(c2ccccc2C(F)(F)F)C1=O | 4.14 µM | 66.9 µM (inactive)
13 | CCS(=O)(=O)c1ncc(Cl)c(C(=O)Nc2ccccc2OC)n1 | 1.82 µM | 7.42 µM
14 | Cc1ccc(S(=O)(=O)N2[C@@H](c3ccc(C(C)(C)C)cc3)C(C(=O)O)=CC[C@H]2c2ccc(C(C)C)cc2)cc1 | 12.9 µM | 55.7 µM (inactive)
15 | O=Nc1c(O)n(Cc2c(Cl)cccc2Cl)c2ccccc12 | 5.45 µM | 49.2 µM
16 | Cc1c(C=O)c(C=O)c(C)n1Cc1ccccc1 | 1.64 µM | 4.67 µM
17 | COc1ccccc1NC(=O)c1cc2c(CO)cnc(C)c2oc1=Nc1ccc(OC)c(OC)c1 | 9.49 µM | 12.2 µM
18 | c1ccc2c(c1)Nc1ccncc1S2 | 1.46 µM | 44.1 µM
19 | Cc1ccc2occ(/C=N/NC(=O)c3ccccc3C)c(=O)c2c1 | 1.36 µM | 43.2 µM
20 | Cc1cccc(CNc2ncnc3ccc(-c4ccoc4)cc23)c1 | < 0.15 µM | 6.04 µM
21 | Cc1ccc(S(=O)(=O)n2cc(-c3ccccc3)c3ccccc32)cc1 | 5.53 µM | > 79 µM (inactive)

Row | SMILES | IC50 [1] | IC50 (Cytotoxicity)
22 | CC(=O)Nc1ccc(NC(=O)C(C)OC(=O)c2ccccc2C(=O)c2ccc(Cl)c([N+](=O)[O-])c2)cc1 (stereo unspecified) | 15.3 µM | 45.2 µM
23 | COc1ccc(NC(=O)Cn2ncn3nc(-c4ccc(OC)cc4)cc3c2=O)cc1 | 6.69 µM | 5.34 µM
24 | CCOC(=O)N1CCC(NC(=O)c2ccc3c(c2)N=C(C)c2c(C)ccc(C)c2S3)CC1 | 11 µM | 41.4 µM
25 | C[C@@H]1CN([C@H](C)CO)C(=O)c2cc(NC(=O)Nc3ccc(C(F)(F)F)cc3)ccc2O[C@H]1CN(C)S(=O)(=O)c1ccccc1 | 9.21 µM | 77.2 µM (inactive)
26 | CCCCN(c1ccccc1)c1ncnc(N)c1[N+](=O)[O-] | 1.08 µM | > 79 µM (inactive)
27 | CCOc1ccccc1N1CCN(C(=O)c2cc(-c3cc(OC)ccc3OC)nc3ccccc23)CC1 | 4.12 µM | 12 µM
28 | Cc1ccc2nc(C(F)(F)F)c(C#N)c(N)c2c1 | 3.26 µM | 9.13 µM
29 | CC(NC(=O)OCc1ccccc1)C(=O)Oc1cc2oc(=O)cc(-c3ccccc3)c2cc1Cl (stereo unspecified) | 1.34 µM | 27.9 µM
30 | O=[N+]([O-])c1ccc(O)c(C2CCCCC2)c1 | 2.04 µM | 3.28 µM
31 | COc1ccccc1-c1cc(NC=O)c2ncc(-c3ccc(F)cc3)n2c1 | 4.08 µM | 46.1 µM
32 | O=C(Nc1cccnc1)c1sc2cccc(F)c2c1Cl | 12.1 µM | 43 µM
33 | CC(C)(C)OC(=O)NCC(=O)Oc1cc2oc(=O)cc(-c3ccccc3)c2cc1Cl | 1.2 µM | 15.3 µM
34 | CCCCCCc1cc2cc(C(=O)Nc3ccccc3OC)c(=O)oc2cc1O | inactive | 49.4 µM
35 | COc1ccc(-c2cc(NC=O)c3ncc(-c4cc(OC)c(OC)c(OC)c4)n3c2)cc1 | > 79 µM (inactive) | 28.9 µM
36 | c1csc(Cc2nn3c(-c4ccncc4)nnc3s2)c1 | 7.94 µM | 57 µM (inactive)
37 | Cc1cc(C)c2nc(C(F)(F)F)c(C#N)c(N)c2c1 | 0.827 µM | 24.6 µM
38 | CC(=O)c1ccc(-n2c(C)c(C(C)=O)c3cc(O)ccc32)cc1 | 1.34 µM | 44.5 µM
39 | CCOc1ccc(NCc2cc3c(C(C)(C)C)nn(-c4ccccc4)c3[nH]c2=O)cc1 | 7.26 µM | 27.4 µM
40 | COc1ccc(-n2nnnc2C(c2cccc(OC)c2OC)N2CCC(n3c(=O)[nH]c4ccccc43)CC2)cc1 (stereo unspecified) | 6.65 µM | 9.39 µM
41 | COc1ccc(-c2cc(=O)oc3cc(O)ccc23)cc1 | 1.89 µM | 46.9 µM
42 | C=C1C(=O)OC2CC1C(O)CC(C)=CCCC(C)=CC(O)CC2C (stereo unspecified) | 0.537 µM | 1.09 µM

Row | SMILES | IC50 [1] | IC50 (Cytotoxicity)
43 | Cc1ccc(N(C)C(=O)c2cc(S(=O)(=O)N3CCCCC3)c[nH]2)cc1 | 11.5 µM | > 79 µM (inactive)
44 | NC(=Nc1ccccc1)NN=Cc1c[nH]c2ccccc12 | inactive | 23.3 µM
45 | Cc1cccc(N2CCN(C(=O)c3[nH]c(C(F)(F)F)nc3-c3ccccc3)CC2)c1C | 17.8 µM | > 79 µM (inactive)
46 | Cc1cccc(C)c1NS(=O)(=O)c1ccc(-c2cnc(C3CC3)o2)cc1 | 11.8 µM | 35 µM
47 | O=C(Nc1ccc([N+](=O)[O-])cc1)Nc1ccc(Cl)cc1F | 2.92 µM | 2.19 µM
48 | Oc1ccc(Br)cc1-c1nc2cnccn2c1NC1CCCC1 | 3.04 µM | 14.5 µM
49 | CCNC(=O)C1(C)CCCN(Cc2ccc(-c3ccccc3)o2)C1 (stereo unspecified) | 9 µM | > 79 µM (inactive)
50 | COc1ccc2c(c1OC)C(=O)N1c3ccccc3C(=O)N(c3ccccc3)C21 (stereo unspecified) | 0.902 µM | 2.94 µM
51 | FC(F)Sc1ccc(NC(=S)NC(c2ccccc2)c2ccccc2)cc1 | 6.53 µM | 9.19 µM
52 | CC1(Cc2ccc(F)cc2)C(=O)Nc2ccc(-c3cccnc3)cc21 (stereo unspecified) | 2.54 µM | 18.8 µM
53 | O=C1N(c2ccccc2C(F)(F)F)O[C@]1(c1ccccc1)C1CCCCC1 | 10.7 µM | > 79 µM (inactive)
54 | O=C1NC(=S)N/C1=C\c1cccnc1 | 5.71 µM | > 79 µM (inactive)
55 | Cc1cccc(NS(=O)(=O)c2ccc(-c3cnc(C4CC4)o3)cc2)c1C | 6.37 µM | 56.2 µM (inactive)
56 | C=C(C)[C@@H]1CCC2(C(=O)O)CC[C@]3(C)[C@H](CC[C@@H]4[C@@]5(C)CCC(=O)C(C)(C)[C@@H]5CC[C@]43C)[C@@H]12 (stereo partly specified) | 8.27 µM | 12.9 µM
57 | Clc1ccc(Cn2ncc3c(N4CCN(c5ccccc5)CC4)ncnc32)cc1 | 4.7 µM | 5.17 µM
58 | Cc1ccc(S(=O)(=O)Nc2cccc3cccnc23)c([N+](=O)[O-])c1 | 2.84 µM | > 79 µM (inactive)
59 | CCC1(O)C(=O)OCc2c1cc1n(c2=O)Cc2cc3cc(O)ccc3nc2-1 (stereo unspecified) | 0.284 µM | 1.09 µM
60 | O=c1[nH]c2ccccc2n1C1CCN(C(c2cc3ccccc3o2)c2nnnn2-c2ccc3c(c2)OCCO3)CC1 (stereo unspecified) | 3.2 µM | 10.2 µM
61 | ON=C1c2ccccc2-c2cc(Br)ccc21 | 1.87 µM | 41.4 µM
62 | C[C@H](CO)N1C[C@H](C)[C@@H](CN(C)C(=O)Nc2ccc3c(c2)OCO3)Oc2c(NC(=O)Nc3ccc(C(F)(F)F)cc3)cccc2C1=O | 3.05 µM | 5.77 µM
63 | c1nc(N2CCOCC2)c2c3c(sc2n1)CCCC3 | 6.88 µM | 62.3 µM (inactive)

Row | SMILES | IC50 [1] | IC50 (Cytotoxicity)
64 | Cc1nc(N)c(C#N)c(-c2cccnc2)c1-c1ccccc1 | 4.45 µM | 62.9 µM (inactive)
65 | Cc1[nH]nc2ncc(C(=O)c3ccccc3O)cc12 | 1.68 µM | 24.3 µM
66 | OCCCNc1ncnc2scc(-c3ccc(Cl)cc3)c12 | 2.35 µM | 32.6 µM
67 | CCCCCCCCCc1nc2sc3c(c2c(=O)n1NC(=O)c1ccc([N+](=O)[O-])cc1)CC(C)(C)OC3 | 5.52 µM | 43.8 µM
68 | OCCNc1nc(Nc2ccc(Cl)c(Cl)c2)nc2ccccc12 | 2.16 µM | 4.07 µM
69 | O=c1[nH]c(C2CCN(S(=O)(=O)c3ccc4c(c3)OCCO4)CC2)nc2c1nnn2Cc1c(F)cccc1Cl | 5.74 µM | 44.5 µM
70 | O=C1Nc2ccccc2/C1=C/c1ccnc2ccccc12 | 5.85 µM | 36.3 µM
71 | O=C(Nc1ccc(Oc2ccc(NC(=O)Nc3ccc([N+](=O)[O-])cc3)cc2)cc1)Nc1ccc([N+](=O)[O-])cc1 | 6.12 µM | 27.8 µM
72 | O=C(Nc1nnc(S(=O)(=O)N2CCCCCC2)s1)c1cccc(Br)c1 | 2.68 µM | 7.27 µM
73 | COc1cc(C2c3cc4c(cc3C(O)C3COC(=O)C23)OCO4)cc(OC)c1OC (stereo unspecified) | > 79 µM (inactive) | > 79 µM (inactive)
74 | COc1ccc(S(=O)(=O)N(C(C)=O)c2ccc(OC(C)=O)c3ccccc23)cc1[N+](=O)[O-] | 3.38 µM | 6.46 µM
75 | CCc1nc(Cl)c(C#N)c2c1CCCC2 | 2.87 µM | 45.4 µM
76 | CCOc1cc2c(cc1O)C(=NOC)CC1C2CCC2(C)C(O)CCC12 (stereo unspecified) | 7.69 µM | > 79 µM (inactive)
77 | O=C(Nc1ccc(F)cc1)Nc1ccc(N2CCCC2)c(S(=O)(=O)Nc2ccccc2Cl)c1 | 7.2 µM | 42.5 µM
78 | CC1(Cc2ccc(Cl)cc2)C(=O)Nc2ccc(-c3cccnc3)cc21 (stereo unspecified) | 1.28 µM | 26.6 µM
79 | Oc1ccc(C[C@H]2CNC(=S)N2CC2CCCN2C[C@H](Cc2ccc(O)cc2)N2C[C@H](Cc3ccc(O)cc3)N(CC3CCCCC3)C2=S)cc1 (stereo partly specified) | 10.3 µM | 15.4 µM
80 | O=S1(=O)CC=C(CSC(=S)NC2CCS(=O)(=O)C2)C1 (stereo unspecified) | 3.05 µM | –
81 | O=C(N/N=C/c1ccccc1Cl)c1[nH]c2ccc(Br)cc2c1-c1ccccc1 | 10.7 µM | –
82 | O=C1C=C(NC2=CC3OC(c4ccccc4)OCC3OC2=O)CCC1 (stereo unspecified) | 3.74 µM | –
